{
  "source": "paper PMC8621570",
  "about": "“Mechanistic Studies of Antibiotic Adjuvants Reducing Kidney’s Bacterial Loads upon Systemic Monotherapy” (Pharmaceutics, 2021)",
  "key": {"[1]": {"tested_on": "Acinetobacter baumannii 19606", "assay": "Sensitization to rifampin, checkerboard method", "type": "cell-based", "settings": "adjuvant at 8 µg/mL (10 µM for C14(ω5)OOc10O), Ab 19606, LB", "description": "(§1) Bacterial sensitization: Sensitization to antibiotics was determined using the checkerboard method in presence of sub-MIC OAC (2.5, 5, and 10 μM), as described. The synergistic effect of the combinations was expressed in terms of the Sensitization Factor (SF), where SF = (MIC antibiotic alone)/(MIC antibiotic upon combination). Data were obtained from three independent assays performed in duplicate.\n(§2) Figure 4 Hydrophobicity dependence of antibiotics potentiation by lipopeptide analogs. Sensitization of GNB to rifampin and erythromycin (upper and lower panel, respectively) was assessed by MIC experiments performed in LB medium, in presence or absence of an OAC analog whose A2 position was gradually shortened (from c10 to c6). Pseudomonas aeruginosa 27853 (Pa, blue), Klebsiella pneumoniae 1287 (Kp, green), Escherichia coli 25922 (Ec, red), and Acinetobacter baumannii 19606 (Ab, black)."}, "Escherichia coli 25922": {"tested_on": "Escherichia coli 25922", "assay": "Sensitization to rifampin, checkerboard method", "type": "cell-based", "settings": "adjuvant at 8 µg/mL (10 µM for C14(ω5)OOc10O), Ec 25922, LB", "description": "as §1, §2"}, "Klebsiella pneumoniae": {"tested_on": "Klebsiella pneumoniae", "assay": "Sensitization to rifampin, checkerboard method", "type": "cell-based", "settings": "adjuvant at 8 µg/mL (10 µM for C14(ω5)OOc10O), Kp, LB", "description": "as §1, §2"}, "[2]": {"assay": "Blood circulating concentrations (preliminary PK)", "type": "in vivo, mouse", "settings": "ICR mice, single S.C 12.5 mg/kg, LC-MS", "description": "C14(ω5)OOc10O was subjected to preliminary pharmacokinetics (PK) analysis to determine its plasma concentrations or organ bio-distribution following S.C administration to non-neutropenic pathogen-free mice. OAC quantification was performed by LC-MS as follows: blood was drawn at various time intervals and plasma was separated by centrifugation (5000 RCF, 10 min). Organs were excised and homogenized. Then, OAC was extracted from both plasma and organ homogenates by incubation with 50% acetonitrile: 50% methanol at room temperature with shaking for 30 min, and subsequent centrifugation (5000 RCF, 10 min). Supernatants were diluted two-fold in distilled water and analyzed by LC-MS (ULC ultimate 3000 DIONEX, MS BRUKER Maxis impact). Quantification was based on standard calibration curves, prepared by spiking fresh mice plasma (for PK) or water (for organ bio-distribution) with various amounts of the tested OAC (final concentrations from 2.5 to 50 µg/mL) and subjected to an identical procedure as described above.\nFigure 10 Systemic efficacy studies using mouse infection models. (a,b) Data points represent colony forming unit (CFU) counts harvested from infected mice (8 and 10 mice per group, respectively). Panel (a) depicts results of the thigh infection model where mice were inoculated intramuscularly with E. coli 25922 (upper dashed line represents the inoculum) and treated subcutaneously with C14(ω5)OOc10O (12.5 mg/kg) at 1 and 3 h post-infection. Panel (b) depicts results of the urinary tract infection model where mice were infected with E. coli UPEC CFT073 by intra-urethral injection and treated subcutaneously with C14(ω5)OOc10O (12.5 mg/kg) at 1 and 6 h post-infection. Solid circles denote mice that died before the experimental endpoint. […] Panels (c,d) show the evolution of C14(ω5)OOc10O concentrations in mouse plasma (c) or in organs (d) after single subcutaneous administration (12.5 mg/kg) to ICR mice (data in c are from two mice/time points except for 60 and 180 that were 8 and 3, respectively) as determined by liquid chromatography–mass spectrometry. […]"}},
  "data": [
    {"smiles": "CCCCC=CCCCCCCCC(=O)N[C@@H](CCCN)C(=O)N[C@@H](CCCN)C(=O)NCCCCCCCCCC(=O)N[C@@H](CCCN)C(N)=O", "note": "[C14(ω5)OOc10O]", "values": [
      {"measurement": "Sensitization factor (rifampin MIC alone)/(rifampin MIC in combination)", "setting": "[1]", "value": 4000},
      {"measurement": "Sensitization factor (rifampin MIC alone)/(rifampin MIC in combination)", "setting": "Escherichia coli 25922", "value": "32,000"},
      {"measurement": "Sensitization factor (rifampin MIC alone)/(rifampin MIC in combination)", "setting": "Klebsiella pneumoniae", "value": "64,000"},
      {"measurement": "Time for which potentiating plasma concentrations (>2.5 µM) were maintained after the maximum", "setting": "[2]", "value": "at least 3 h"},
      {"measurement": "Cmax", "setting": "[2]; mouse, plasma, sc, mean ± SD, read-out: Maximal plasma concentration", "value": "8.7 ± 2.3", "unit": "µM"},
      {"measurement": "Tmax", "setting": "[2]; mouse, plasma, sc, read-out: Time to maximal plasma concentration", "value": "~1", "unit": "h"}
    ]}
  ]
}
